The values below come from patent publication US7169817B2, “Bis-aromatic alkanols” (IRM LLC, priority 2002, dated 2007).

Usually EC50 stands for the midpoint of the concentration-response curve. A low value points to greater potency.

Assay in all cases: GTPγS binding assay using S1P receptor/HEK293 membrane preparations
What all share (format): biochemical
Common to all, as to conditions: membranes of transiently transfected HEK293 cells
A general note: Binding of GTPγS marks nucleotide exchange on a G protein.

The target in one assay is T1, S1P3 (Homo sapiens, UniProt Q99500).
T1 construct: expressed in transfected cells; host or cells: HEK293 (transient, calcium phosphate); crude membranes
From the text: (§1) A. In vitro: Binding Affinity of Compounds of Formula I to Individual Human S1P Receptors may be Determined in the Following Assays:
(§2) Transient Transfection of Human S1P Receptors into HEK293 Cells
(§3) EDG receptors and Gi proteins are cloned, and equal amounts of 4 cDNAs for the EDG receptor, Gi-α, Gi-β and Gi-γ are mixed and used to transfect monolayers of HEK293 cells using the calcium phosphate precipitate method (M. Wigler et al., Cell. 1977;11;223 and D S. Im et al., Mol. Pharmacol. 2000;57;753). Briefly, a DNA mixture containing 25 μg of DNA and 0.25 M CaCl is added to HEPES-buffered 2 mM Na2HPO4. Subconfluent monolayers of HEK293 cells are poisoned with […] chloroquine, and the DNA precipitate is then applied to the cells. After 4 hours, the monolayers are washed with phosphate-buffered saline and re-fed media (90% 1:1 Dulbecco's modified essential media (DMEM):F-12+10% fetal bovine serum). The cells are harvested 48–72 hours after addition of the DNA by scraping in HME buffer (in mM: 20 HEPES, 5 MgCl2, 1 EDTA, pH 7.4) containing 10% sucrose on ice, and disrupted using a Dounce homogenizer. After centrifugation at 800×g, the supernatant is diluted with HME without sucrose and centrifuged at 100,000×g for 1 hour. The resulting pellet is rehomogenized and centrifuged a second hour at 100,000×g. This crude membrane pellet is resuspended in HME with sucrose, aliquoted, and snap-frozen by immersion in liquid nitrogen. The membranes are stored at […] Protein concentration is determined spectroscopically by the Bradford protein assay.
(§4) GTPγS Binding Assay Using S1P Receptor/HEK293 Membrane Preparations
(§5) GTPγS binding experiments are performed as described by D S. Im et al., Mol. Pharmacol. 2000; 57:753. Ligand-mediated GTPγS binding to G-proteins is measured in GTP binding buffer (in mM: 50 HEPES, 100 NaCl, 10 MgCl2, pH 7.5) using 25 μg of a membrane preparation from transiently transfected HEK293 cells. Ligand is added to membranes in the presence of 10 μM GDP and 0.1 nM [^35S]GTPγS (1200 Ci/mmol) and incubated at 30° C. for 30 min. Bound GTPγS is separated from unbound using the Brandel harvester (Gaithersburg, Md.) and counted with a liquid scintillation counter.

For a further assay, the target named is T2, S1P1 (Homo sapiens, UniProt P21453).
T2 construct: expressed in transfected cells; host or cells: HEK293 (transient, calcium phosphate); crude membranes
Excerpt: as §1, §2, §3, §4, §5

A further assay deals with T3, S1P5 (Homo sapiens, UniProt Q9H228).
T3 construct: expressed in transfected cells; host or cells: HEK293 (transient, calcium phosphate); crude membranes
Excerpt: as §1, §2, §3, §4, §5

The target in a further assay is T4, S1P4 (Homo sapiens, UniProt O95977).
T4 construct: expressed in transfected cells; host or cells: HEK293 (transient, calcium phosphate); crude membranes
T4 sequence (O95977 1-384): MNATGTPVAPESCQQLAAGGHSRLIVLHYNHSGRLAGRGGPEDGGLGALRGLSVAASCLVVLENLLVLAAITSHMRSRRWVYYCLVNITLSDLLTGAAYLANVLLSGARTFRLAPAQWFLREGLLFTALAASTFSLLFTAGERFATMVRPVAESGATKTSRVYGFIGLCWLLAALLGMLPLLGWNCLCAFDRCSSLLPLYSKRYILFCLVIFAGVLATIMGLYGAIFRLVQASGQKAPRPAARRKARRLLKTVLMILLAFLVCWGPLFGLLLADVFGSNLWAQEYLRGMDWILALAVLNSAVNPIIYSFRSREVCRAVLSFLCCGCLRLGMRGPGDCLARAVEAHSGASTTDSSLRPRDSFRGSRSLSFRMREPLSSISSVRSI
Excerpt: as §1, §2, §3, §4, §5

The target of a further assay is T5, S1P2 (Homo sapiens, UniProt O95136).
T5 construct: expressed in transfected cells; host or cells: HEK293 (transient, calcium phosphate); crude membranes
Excerpt: as §1, §2, §3, §4, §5

T3 sequence (Q9H228 whole entry): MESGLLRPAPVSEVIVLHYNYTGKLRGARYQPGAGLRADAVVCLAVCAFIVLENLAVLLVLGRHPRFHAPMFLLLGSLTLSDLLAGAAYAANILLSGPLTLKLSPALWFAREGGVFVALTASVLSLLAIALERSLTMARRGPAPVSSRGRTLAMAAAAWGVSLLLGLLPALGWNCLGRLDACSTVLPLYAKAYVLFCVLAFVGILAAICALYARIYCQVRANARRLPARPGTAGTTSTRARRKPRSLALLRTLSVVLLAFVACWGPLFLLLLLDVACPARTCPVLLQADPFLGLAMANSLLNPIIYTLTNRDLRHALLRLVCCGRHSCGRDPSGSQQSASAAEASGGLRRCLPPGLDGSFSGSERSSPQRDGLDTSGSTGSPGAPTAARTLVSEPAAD
T1 sequence (Q99500 whole entry): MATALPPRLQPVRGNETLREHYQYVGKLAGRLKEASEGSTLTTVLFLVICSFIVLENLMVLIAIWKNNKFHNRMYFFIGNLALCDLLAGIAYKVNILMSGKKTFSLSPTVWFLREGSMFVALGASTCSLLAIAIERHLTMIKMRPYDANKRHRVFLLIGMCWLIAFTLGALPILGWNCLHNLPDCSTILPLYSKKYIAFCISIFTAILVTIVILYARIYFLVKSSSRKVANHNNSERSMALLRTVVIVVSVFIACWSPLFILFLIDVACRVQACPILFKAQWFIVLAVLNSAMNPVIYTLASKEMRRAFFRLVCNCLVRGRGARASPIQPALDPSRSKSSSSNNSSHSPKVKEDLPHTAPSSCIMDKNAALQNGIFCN
T5 sequence (O95136 whole entry): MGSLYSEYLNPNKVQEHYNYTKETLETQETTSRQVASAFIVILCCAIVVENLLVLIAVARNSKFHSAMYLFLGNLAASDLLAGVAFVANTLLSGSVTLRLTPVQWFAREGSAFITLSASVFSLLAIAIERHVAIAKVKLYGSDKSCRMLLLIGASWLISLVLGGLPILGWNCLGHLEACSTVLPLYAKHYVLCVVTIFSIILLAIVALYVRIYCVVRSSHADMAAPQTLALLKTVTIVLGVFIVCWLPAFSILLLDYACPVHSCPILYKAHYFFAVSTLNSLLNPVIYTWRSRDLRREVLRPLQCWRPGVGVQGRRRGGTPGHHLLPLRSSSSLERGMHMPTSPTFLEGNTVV
T2 sequence (P21453 whole entry): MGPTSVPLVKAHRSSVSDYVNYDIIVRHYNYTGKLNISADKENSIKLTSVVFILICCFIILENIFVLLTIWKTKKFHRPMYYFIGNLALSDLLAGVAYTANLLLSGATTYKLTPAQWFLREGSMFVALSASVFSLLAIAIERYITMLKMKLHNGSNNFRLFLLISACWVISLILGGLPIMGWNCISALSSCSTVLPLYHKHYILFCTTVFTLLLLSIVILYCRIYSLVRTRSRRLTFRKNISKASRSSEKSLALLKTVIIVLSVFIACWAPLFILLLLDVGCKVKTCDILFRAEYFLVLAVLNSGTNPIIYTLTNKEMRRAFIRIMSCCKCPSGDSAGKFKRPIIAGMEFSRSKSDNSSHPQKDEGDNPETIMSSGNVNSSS

Turning to `CCCCCc1ccc(-c2ccc(CCC(N)(CO)CO)cc2)cc1` [Example 36], the EC50 on S1P3 is greater than 10000 nM; at S1P1, 0.33 nM; on S1P5 it was 1.1 nM; at S1P4 it was 1.2 nM; at S1P2, greater than 10000 nM.
Consider `CCCc1cc(-c2ccc(-c3ccc(CCC(N)(CO)CO)cc3)cc2)no1` [Example 41], for which the EC50 on S1P3 is 53.8 nM; on S1P1, 0.16 nM; at S1P5 it was 2.1 nM; at S1P4, greater than 10000 nM; on S1P2, greater than 10000 nM.
Consider `NC(CO)(CO)CCc1ccc(-c2ccc(OCc3ccc(F)c(F)c3)cc2)cc1` [Example 63], for which the EC50 at S1P3 was 1.9 nM; on S1P1 it was 0.07 nM; at S1P5 it was 0.1 nM; on S1P4 it was greater than 10000 nM; at S1P2, greater than 10000 nM.
